Assay results published in ChEMBL document CHEMBL4265943, “Design and synthesis of potent dual inhibitors of JAK2 and HDAC based on fusing the pharmacophores of XL019 and vorinostat” (Eur J Med Chem, 2018).
Active and inactive are the calls of the source. The calls are words filed in the database; no cut-off is given here.

Legend:
[1] = target: T1, Tyrosine-protein kinase JAK2 (Homo sapiens, UniProt O60674); test: Inhibition of human JAK2 using poly(Glu:Tyr)(4:1) as substrate preincubated for 20 mins followed by [gamma33P]ATP addition measured after 120 mins by ion exchange filter paper method
[2] = system: MDA-MB-231; test: Antiproliferative activity against human MDA-MB-231 cells after 72 hrs by MTT assay; assay type: functional, cell-based; settings: MDA-MB-231, 72 h
[3] = species: Homo sapiens; test: Selectivity ratio of IC50 for HDAC1 (unknown origin) to IC50 for HDAC6 (unknown origin)
[4] = system: MCF7; test: Antiproliferative activity against human MCF7 cells after 72 hrs by MTT assay; assay type: functional, cell-based; settings: MCF7, 72 h
[5] = system: HEL 92.1.7; test: cells; assay type: functional, cell-based; settings: Homo sapiens, HEL 92.1.7, 72 h
Description: Antiproliferative activity against human HEL 92.1.7 cells after 72 hrs by MTT assay

[6] = system: HCT-116; test: Antiproliferative activity against human HCT116 cells after 72 hrs by MTT assay; assay type: functional, cell-based; settings: HCT-116, 72 h
[7] = target: Histone deacetylase 1 (Homo sapiens, UniProt Q13547); test: Inhibition of HDAC1 (unknown origin) using Arg-His-Lys-Lys(Ac) as substrate preincubated with enzyme followed by substrate addition for 2 hrs and measured for 1.5 hrs at 15 mins time interval by fluorescence assay
[8] = system: PC-3; test: Antiproliferative activity against human PC3 cells after 72 hrs by MTT assay; assay type: functional, cell-based; settings: PC-3, 72 h
[9] = system: Jurkat; test: Antiproliferative activity against human Jurkat cells after 72 hrs by MTT assay; assay type: functional, cell-based
[10] = target: T2, Protein deacetylase HDAC6 (Homo sapiens, UniProt Q9UBN7); test: Inhibition of HDAC6 (unknown origin) using Arg-His-Lys-Lys(Ac) as substrate preincubated with enzyme followed by substrate addition for 2 hrs and measured for 1.5 hrs at 15 mins time interval by fluorescence assay
T2 sequence (Q9UBN7 whole entry): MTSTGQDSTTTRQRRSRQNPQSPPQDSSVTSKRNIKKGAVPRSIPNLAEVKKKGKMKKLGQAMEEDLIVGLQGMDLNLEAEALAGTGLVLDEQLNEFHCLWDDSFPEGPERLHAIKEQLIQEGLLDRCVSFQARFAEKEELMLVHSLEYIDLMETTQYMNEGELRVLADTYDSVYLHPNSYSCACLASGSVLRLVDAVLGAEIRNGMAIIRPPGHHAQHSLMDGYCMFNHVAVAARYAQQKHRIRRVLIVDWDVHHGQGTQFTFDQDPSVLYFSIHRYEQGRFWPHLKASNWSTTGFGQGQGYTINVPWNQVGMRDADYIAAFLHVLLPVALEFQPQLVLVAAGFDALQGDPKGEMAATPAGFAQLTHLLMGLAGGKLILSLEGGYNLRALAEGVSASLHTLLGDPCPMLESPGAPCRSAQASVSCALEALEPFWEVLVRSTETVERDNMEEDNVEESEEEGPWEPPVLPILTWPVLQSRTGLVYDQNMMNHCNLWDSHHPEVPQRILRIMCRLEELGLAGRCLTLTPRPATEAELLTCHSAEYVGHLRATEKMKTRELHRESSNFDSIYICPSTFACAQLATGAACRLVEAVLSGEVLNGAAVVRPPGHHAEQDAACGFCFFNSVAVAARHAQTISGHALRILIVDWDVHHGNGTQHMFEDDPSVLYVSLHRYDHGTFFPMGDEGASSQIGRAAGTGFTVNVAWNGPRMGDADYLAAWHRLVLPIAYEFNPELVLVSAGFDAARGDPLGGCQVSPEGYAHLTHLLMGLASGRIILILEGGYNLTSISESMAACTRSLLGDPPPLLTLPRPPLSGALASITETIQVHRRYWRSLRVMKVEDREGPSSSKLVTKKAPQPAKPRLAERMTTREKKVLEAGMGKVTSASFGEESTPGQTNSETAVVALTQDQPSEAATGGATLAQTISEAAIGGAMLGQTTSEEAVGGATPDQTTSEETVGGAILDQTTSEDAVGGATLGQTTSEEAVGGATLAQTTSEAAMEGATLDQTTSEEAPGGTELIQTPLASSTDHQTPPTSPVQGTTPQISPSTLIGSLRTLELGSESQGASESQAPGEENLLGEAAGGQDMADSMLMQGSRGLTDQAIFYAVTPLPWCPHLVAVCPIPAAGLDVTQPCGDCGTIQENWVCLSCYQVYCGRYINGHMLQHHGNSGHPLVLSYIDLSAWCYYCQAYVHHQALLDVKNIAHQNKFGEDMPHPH

[11] = Antiproliferative activity against mouse TAMH cells after 72 hrs by MTT assay; assay type: cell-based
[12] = Selectivity index, ratio of CC50 for human AC10 cells to IC50 for human KMS-12-BM cells; assay type: toxicity; settings: AC10 cells (CC50) and KMS-12-BM cells (IC50)
[13] = Selectivity index, ratio of CC50 for human AC10 cells to IC50 for human XG6 cells; assay type: toxicity; settings: AC10 cells (CC50) and XG6 cells (IC50)
[14] = Selectivity index, ratio of CC50 for mouse TAMH cells to IC50 for human XG6 cells; assay type: toxicity; settings: TAMH cells (CC50) and XG6 cells (IC50)
[15] = Antiproliferative activity against human AC10 cells after 72 hrs by MTT assay; assay type: cell-based
[16] = system: KMS-12-BM; test: Antiproliferative activity against human KMS-12-BM cells after 72 hrs by MTT assay; assay type: functional, cell-based
[17] = target: Histone deacetylase 1/2/3 (Homo sapiens) (UniProt Q13547+O15379+Q92769); test: Inhibition of HDAC1/HDAC2/HDAC3 in human HEL 92.1.7 cells assessed as increase in acetylated […] level at 1 uM after 1 hr by immunoblot analysis; assay type: cell-based
[18] = Antiproliferative activity against human XG6 cells after 72 hrs by MTT assay; assay type: functional, cell-based; settings: XG6, 72 h
[19] = target: T1, Tyrosine-protein kinase JAK2; test: Inhibition of JAK2 in human HeLa cells assessed as reduction in STAT5 phosphorylation at 15 to 20 uM after 1 hr by immunoblot analysis; assay type: cell-based
[20] = target: T3, Protein deacetylase HDAC6 (Homo sapiens) (UniProt Q9UBN7); test: Inhibition of HDAC6 in human HEL 92.1.7 cells assessed as increase in acetylated tubulin level at 1 uM after 1 hr by immunoblot analysis; assay type: cell-based
T3 sequence (whole entry): T2 sequence (Q9UBN7 whole entry)

[21] = Selectivity index, ratio of CC50 for mouse TAMH cells to IC50 for human KMS-12-BM cells; assay type: toxicity; settings: TAMH cells (CC50) and KMS-12-BM cells (IC50)
[22] = target: T1, Tyrosine-protein kinase JAK2; test: Inhibition of JAK2 in human HeLa cells assessed as increase in JAK2 phosphorylation at 15 to 20 uM after 1 hr by immunoblot analysis; assay type: cell-based
[23] = Selectivity index, ratio of CC50 for human AC10 cells to IC50 for human PC3 cells; assay type: toxicity; settings: AC10 cells (CC50) and PC3 cells (IC50)
[24] = system: MCF7; test: Induction of apoptosis in human MCF7 cells assessed as late apoptotic cells at 1.64 uM after 72 hrs by Annexin V-FITC/propidium iodide staining based flow cytometry (reference value: 1.59%); assay type: functional
[25] = system: HCT-116; test: Induction of apoptosis in human HCT116 cells assessed as live cells at 0.99 uM after 72 hrs by Annexin V-FITC/propidium iodide staining based flow cytometry (reference value: 95.7%); assay type: functional
[26] = Selectivity index, ratio of CC50 for human AC10 cells to IC50 for human MDA-MB-231 cells; assay type: toxicity; settings: AC10 cells (CC50) and MDA-MB-231 cells (IC50)
[27] = system: PC-3; test: Induction of apoptosis in human PC3 cells assessed as late apoptotic cells at 1.07 uM after 72 hrs by Annexin V-FITC/propidium iodide staining based flow cytometry (reference value: 1.01%); assay type: functional
[28] = system: MDA-MB-231; test: Induction of apoptosis in human MDA-MB-231 cells assessed as live cells at 0.85 uM after 72 hrs by Annexin V-FITC/propidium iodide staining based flow cytometry (reference value: 90.98%); assay type: functional
[29] = system: MCF7; test: Induction of apoptosis in human MCF7 cells assessed as necrotic cells at 1.64 uM after 72 hrs by Annexin V-FITC/propidium iodide staining based flow cytometry (reference value: 2.17%); assay type: functional
[30] = Selectivity index, ratio of CC50 for mouse TAMH cells to IC50 for human MDA-MB-231 cells; assay type: toxicity; settings: TAMH cells (CC50) and MDA-MB-231 cells (IC50)
[31] = system: MCF7; test: Induction of apoptosis in human MCF7 cells assessed as live cells at 1.64 uM after 72 hrs by Annexin V-FITC/propidium iodide staining based flow cytometry (reference value: 95.05%); assay type: functional
[32] = system: MDA-MB-231; test: Induction of apoptosis in human MDA-MB-231 cells assessed as necrotic cells at 0.85 uM after 72 hrs by Annexin V-FITC/propidium iodide staining based flow cytometry (reference value: 5.45%); assay type: functional
[33] = system: HCT-116; test: Induction of apoptosis in human HCT116 cells assessed as early apoptotic cells at 0.99 uM after 72 hrs by Annexin V-FITC/propidium iodide staining based flow cytometry (reference value: 1.31%); assay type: functional
[34] = system: HCT-116; test: Induction of apoptosis in human HCT116 cells assessed as necrotic cells at 0.99 uM after 72 hrs by Annexin V-FITC/propidium iodide staining based flow cytometry (reference value: 1.54%); assay type: functional
[35] = system: PC-3; test: Induction of apoptosis in human PC3 cells assessed as necrotic cells at 1.07 uM after 72 hrs by Annexin V-FITC/propidium iodide staining based flow cytometry (reference value: 0.66%); assay type: functional
[36] = Selectivity index, ratio of CC50 for mouse TAMH cells to IC50 for human MCF7 cells; assay type: toxicity; settings: TAMH cells (CC50) and MCF7 cells (IC50)
[37] = Selectivity index, ratio of CC50 for human AC10 cells to IC50 for human MCF7 cells; assay type: toxicity; settings: AC10 cells (CC50) and MCF7 cells (IC50)
[38] = system: MDA-MB-231; test: Induction of apoptosis in human MDA-MB-231 cells assessed as late apoptotic cells at 0.85 uM after 72 hrs by Annexin V-FITC/propidium iodide staining based flow cytometry (reference value: 2.12%); assay type: functional
[39] = system: PC-3; test: Induction of apoptosis in human PC3 cells assessed as live cells at 1.07 uM after 72 hrs by Annexin V-FITC/propidium iodide staining based flow cytometry (reference value: 96.36%); assay type: functional
[40] = system: MCF7; test: Induction of apoptosis in human MCF7 cells assessed as early apoptotic cells at 1.64 uM after 72 hrs by Annexin V-FITC/propidium iodide staining based flow cytometry (reference value: 1.19%); assay type: functional
[41] = system: HCT-116; test: Induction of apoptosis in human HCT116 cells assessed as late apoptotic cells at 0.99 uM after 72 hrs by Annexin V-FITC/propidium iodide staining based flow cytometry (reference value: 1.45%); assay type: functional
[42] = system: MDA-MB-231; test: Induction of apoptosis in human MDA-MB-231 cells assessed as early apoptotic cells at 0.85 uM after 72 hrs by Annexin V-FITC/propidium iodide staining based flow cytometry (reference value: 1.45%); assay type: functional
[43] = Selectivity index, ratio of CC50 for mouse TAMH cells to IC50 for human PC3 cells; assay type: toxicity; settings: TAMH cells (CC50) and PC3 cells (IC50)
[44] = system: PC-3; test: Induction of apoptosis in human PC3 cells assessed as early apoptotic cells at 1.07 uM after 72 hrs by Annexin V-FITC/propidium iodide staining based flow cytometry (reference value: […]%); assay type: functional

Chain of Histone deacetylase 1 (Q13547 whole entry): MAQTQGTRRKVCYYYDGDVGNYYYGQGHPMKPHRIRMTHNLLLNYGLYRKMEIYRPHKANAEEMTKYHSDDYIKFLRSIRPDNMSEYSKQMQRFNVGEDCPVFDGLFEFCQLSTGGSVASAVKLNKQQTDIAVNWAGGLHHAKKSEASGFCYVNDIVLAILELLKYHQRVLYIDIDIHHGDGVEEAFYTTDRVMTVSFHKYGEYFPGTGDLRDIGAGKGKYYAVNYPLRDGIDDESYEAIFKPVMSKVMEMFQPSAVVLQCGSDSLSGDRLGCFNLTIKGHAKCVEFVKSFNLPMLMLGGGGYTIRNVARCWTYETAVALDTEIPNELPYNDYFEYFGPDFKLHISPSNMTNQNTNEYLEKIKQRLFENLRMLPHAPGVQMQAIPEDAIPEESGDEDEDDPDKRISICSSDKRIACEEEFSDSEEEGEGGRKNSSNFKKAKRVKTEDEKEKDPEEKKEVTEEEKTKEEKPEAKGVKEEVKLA
T1 sequence (O60674 whole entry): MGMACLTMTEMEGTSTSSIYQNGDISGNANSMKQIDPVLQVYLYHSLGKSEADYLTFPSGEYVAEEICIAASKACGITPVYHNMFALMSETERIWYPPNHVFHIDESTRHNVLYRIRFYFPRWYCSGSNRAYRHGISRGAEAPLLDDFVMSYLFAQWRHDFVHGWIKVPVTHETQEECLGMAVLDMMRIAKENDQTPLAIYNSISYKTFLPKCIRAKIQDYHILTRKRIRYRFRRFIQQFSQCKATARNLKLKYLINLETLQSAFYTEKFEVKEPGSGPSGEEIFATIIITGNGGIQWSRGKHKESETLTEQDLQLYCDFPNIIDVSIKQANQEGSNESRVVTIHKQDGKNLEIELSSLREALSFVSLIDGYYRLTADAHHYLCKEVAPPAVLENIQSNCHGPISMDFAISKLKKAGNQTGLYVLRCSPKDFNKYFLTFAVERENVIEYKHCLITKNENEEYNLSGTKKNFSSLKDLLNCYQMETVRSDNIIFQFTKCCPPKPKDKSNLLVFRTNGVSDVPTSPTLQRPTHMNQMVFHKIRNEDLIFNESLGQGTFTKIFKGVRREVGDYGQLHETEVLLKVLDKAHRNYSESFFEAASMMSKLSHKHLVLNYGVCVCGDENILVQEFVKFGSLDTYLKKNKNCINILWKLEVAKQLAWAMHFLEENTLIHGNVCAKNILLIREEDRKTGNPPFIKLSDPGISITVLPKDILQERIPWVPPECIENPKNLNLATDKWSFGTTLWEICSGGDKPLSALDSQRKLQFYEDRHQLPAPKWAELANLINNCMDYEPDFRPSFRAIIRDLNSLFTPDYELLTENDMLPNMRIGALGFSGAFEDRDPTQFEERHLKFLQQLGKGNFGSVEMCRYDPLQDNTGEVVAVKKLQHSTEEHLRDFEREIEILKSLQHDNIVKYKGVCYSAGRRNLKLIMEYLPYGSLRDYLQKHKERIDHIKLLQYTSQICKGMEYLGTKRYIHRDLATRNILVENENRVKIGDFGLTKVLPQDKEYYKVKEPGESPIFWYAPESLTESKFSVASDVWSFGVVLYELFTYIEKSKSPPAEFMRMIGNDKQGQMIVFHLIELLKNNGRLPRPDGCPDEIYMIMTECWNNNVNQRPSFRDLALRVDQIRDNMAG

## CC(=O)Nc1ccc(-c2ccnc(Nc3cccc(NC(=O)CCCCC(=O)NO)c3)n2)cc1
[1]
  IC50: 2.6 nM
[2]
  IC50: 14600 nM
[3]
  Ratio IC50: 100
[4]
  IC50: 26700 nM
[5]
  IC50: > 10000 nM
[6]
  IC50: 34100 nM
[7]
  IC50: 384 nM
[8]
  IC50: 18600 nM
[9]
  IC50: > 10000 nM
[10]
  IC50: 4.6 nM

## CC(=O)Nc1ccc(-c2ccnc(Nc3ccc(NC(=O)CCCCCCC(=O)NO)cc3)n2)cc1
[1]
  IC50: 0.9 nM
[11]
  CC50 at 72 h: 12500 nM
[12]
  selectivity ratio: 16.8
[13]
  selectivity ratio: 6.16
[2]
  IC50: 1540 nM
[3]
  Ratio IC50: > 7000
[14]
  selectivity ratio: 3.95
[15]
  CC50 at 72 h: 19500 nM
[16]
  IC50: 1160 nM
[17]
  inhibition: Active
[4]
  IC50: 1090 nM
[5]
  IC50: 2530 nM
[18]
  IC50: 3170 nM
[6]
  IC50: 1970 nM
[19]
  inhibition: Active
[7]
  IC50: 774 nM
[8]
  IC50: 3840 nM
[20]
  inhibition: Active
[21]
  selectivity ratio: 10.8
[22]
  inhibition: Active
[10]
  IC50: 0.1 nM

## CN1CCN(c2ccc(Nc3nccc(-c4ccc(NC(=O)CCCCCCC(=O)NO)cc4)n3)cc2)CC1
[23]
  selectivity ratio: 3.25
[1]
  IC50: 4.6 nM
[24]
  Activity: 3.37%
[11]
  CC50 at 72 h: 5440 nM
[25]
  Activity: 83.01%
[26]
  selectivity ratio: 3.64
[2]
  IC50: 910 nM
[15]
  CC50 at 72 h: 3310 nM
[27]
  Activity: 19.83%
[28]
  Activity: 13.2%
[29]
  Activity: 1.88%
[30]
  selectivity ratio: 5.98
[4]
  IC50: 1610 nM
[6]
  IC50: 990 nM
[31]
  Activity: 88.21%
[32]
  Activity: 6.84%
[33]
  Activity: 5.87%
[34]
  Activity: 4.69%
[7]
  IC50: 77 nM
[35]
  Activity: 1.54%
[8]
  IC50: 1020 nM
[36]
  selectivity ratio: 3.38
[37]
  selectivity ratio: 2.06
[38]
  Activity: 40.56%
[39]
  Activity: 5.35%
[40]
  Activity: 6.54%
[41]
  Activity: 6.43%
[10]
  IC50: 3.1 nM
[42]
  Activity: 39.4%
[43]
  selectivity ratio: 5.33
[44]
  Activity: 73.28%
